In PubChem BioAssay (NCI):
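Values below derive from 48-hour exposures of cells grown in 96-well plates, with endpoints linearly interpolated between the two concentrations bracketing the appropriate inhibition level. The concentration for full growth arrest is given as TGI.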

What was measured:
Experiment in all cases: inhibition of tumour cell growth, NCI panel, 48 h
DU-145 prostate = tested on: DU-145 prostate
NCI-H226 lung = tested on: NCI-H226 lung
MALME-3M melanoma = tested on: MALME-3M melanoma
T-47D breast = tested on: T-47D breast
SF-539 CNS = tested on: SF-539 CNS
HCT-15 colon = tested on: HCT-15 colon
HCT-116 colon = tested on: HCT-116 colon
786-0 renal = tested on: 786-0 renal
NCI-H460 lung = tested on: NCI-H460 lung
CCRF-CEM leukemia = tested on: CCRF-CEM leukemia
MOLT-4 leukemia = tested on: MOLT-4 leukemia
SR leukemia = tested on: SR leukemia
NCI-H522 lung = tested on: NCI-H522 lung
SK-MEL-2 melanoma = tested on: SK-MEL-2 melanoma
HL-60(TB) leukemia = tested on: HL-60(TB) leukemia
A549 NSCLC = tested on: A549 NSCLC
SK-MEL-5 melanoma = tested on: SK-MEL-5 melanoma
SK-OV-3 ovarian = tested on: SK-OV-3 ovarian
MDA-MB-435 = tested on: MDA-MB-435
ACHN renal = tested on: ACHN renal
SF-295 CNS = tested on: SF-295 CNS
HS 578T breast = tested on: HS 578T breast
BT-549 breast = tested on: BT-549 breast
HOP-92 NSCLC = tested on: HOP-92 NSCLC
RXF 393 renal = tested on: RXF 393 renal
U251 CNS = tested on: U251 CNS
UACC-62 melanoma = tested on: UACC-62 melanoma
RPMI-8226 leukemia = tested on: RPMI-8226 leukemia
UACC-257 melanoma = tested on: UACC-257 melanoma
SNB-75 CNS = tested on: SNB-75 CNS
A498 renal = tested on: A498 renal
HCC-2998 colon = tested on: HCC-2998 colon
KM12 colon = tested on: KM12 colon
UO-31 renal = tested on: UO-31 renal
SN12C renal = tested on: SN12C renal
OVCAR-4 ovarian = tested on: OVCAR-4 ovarian
NCI/ADR-RES ovarian = tested on: NCI/ADR-RES ovarian
MDA-N = tested on: MDA-N
PC-3 prostate = tested on: PC-3 prostate
M14 melanoma = tested on: M14 melanoma
IGROV1 ovarian = tested on: IGROV1 ovarian
OVCAR-5 ovarian = tested on: OVCAR-5 ovarian
LOX IMVI melanoma = tested on: LOX IMVI melanoma
OVCAR-3 ovarian = tested on: OVCAR-3 ovarian
SW-620 colon = tested on: SW-620 colon
MCF7 breast = tested on: MCF7 breast
HT29 colon = tested on: HT29 colon
CAKI-1 renal = tested on: CAKI-1 renal
HOP-62 NSCLC = tested on: HOP-62 NSCLC
EKVX NSCLC = tested on: EKVX NSCLC
SF-268 CNS = tested on: SF-268 CNS
SNB-19 CNS = tested on: SNB-19 CNS
COLO 205 colon = tested on: COLO 205 colon
SK-MEL-28 melanoma = tested on: SK-MEL-28 melanoma
OVCAR-8 ovarian = tested on: OVCAR-8 ovarian
K-562 leukemia = tested on: K-562 leukemia
MDA-MB-231 breast = tested on: MDA-MB-231 breast
TK-10 renal = tested on: TK-10 renal

C/C(=N\NC(=O)N/N=C(\C)c1ccccn1)c1ccccn1
TGI (DU-145 prostate): > 100 µM | TGI (NCI-H226 lung): > 100 µM | TGI (MALME-3M melanoma): > 100 µM | TGI (T-47D breast): > 100 µM | TGI (SF-539 CNS): 3.04 µM | TGI (HCT-15 colon): > 100 µM | TGI (HCT-116 colon): > 100 µM | TGI (786-0 renal): > 51.5 µM | TGI (NCI-H460 lung): > 100 µM | TGI (CCRF-CEM leukemia): > 100 µM | TGI (MOLT-4 leukemia): > 100 µM | TGI (SR leukemia): > 100 µM | TGI (NCI-H522 lung): > 100 µM | TGI (SK-MEL-2 melanoma): > 100 µM | TGI (HL-60(TB) leukemia): > 100 µM | TGI (A549 NSCLC): > 100 µM | TGI (SK-MEL-5 melanoma): > 47.3 µM | TGI (SK-OV-3 ovarian): > 100 µM | TGI (MDA-MB-435): > 100 µM | TGI (ACHN renal): > 100 µM | TGI (SF-295 CNS): > 100 µM | TGI (HS 578T breast): > 100 µM | TGI (BT-549 breast): 18.2 µM | TGI (HOP-92 NSCLC): > 100 µM | TGI (RXF 393 renal): > 100 µM | TGI (U251 CNS): > 100 µM | TGI (UACC-62 melanoma): > 100 µM | TGI (RPMI-8226 leukemia): > 100 µM | TGI (UACC-257 melanoma): > 100 µM | TGI (SNB-75 CNS): > 100 µM | TGI (A498 renal): > 100 µM | TGI (HCC-2998 colon): > 100 µM | TGI (KM12 colon): > 100 µM | TGI (UO-31 renal): > 100 µM | TGI (SN12C renal): > 100 µM | TGI (OVCAR-4 ovarian): > 100 µM | TGI (NCI/ADR-RES ovarian): 93.6 µM | TGI (MDA-N): > 100 µM | TGI (PC-3 prostate): > 100 µM | TGI (M14 melanoma): > 100 µM | TGI (IGROV1 ovarian): > 100 µM | TGI (OVCAR-5 ovarian): > 100 µM | TGI (LOX IMVI melanoma): > 100 µM | TGI (OVCAR-3 ovarian): > 100 µM | TGI (SW-620 colon): > 100 µM | TGI (MCF7 breast): > 100 µM | TGI (HT29 colon): > 100 µM | TGI (CAKI-1 renal): > 100 µM | TGI (HOP-62 NSCLC): > 100 µM | TGI (EKVX NSCLC): > 100 µM | TGI (SF-268 CNS): > 83.9 µM | TGI (SNB-19 CNS): > 100 µM | TGI (COLO 205 colon): > 100 µM | TGI (SK-MEL-28 melanoma): > 100 µM | TGI (OVCAR-8 ovarian): > 100 µM

Cn1c(=O)c2[nH]c(-n3nc(-c4ccccc4)cc3N)nc2n(C)c1=O
TGI (DU-145 prostate): 45 µM | TGI (NCI-H226 lung): 33.7 µM | TGI (MALME-3M melanoma): 47 µM | TGI (T-47D breast): 65.9 µM | TGI (SF-539 CNS): 27.1 µM | TGI (HCT-15 colon): > 100 µM | TGI (HCT-116 colon): > 100 µM | TGI (786-0 renal): > 100 µM | TGI (NCI-H460 lung): > 100 µM | TGI (CCRF-CEM leukemia): > 100 µM | TGI (MOLT-4 leukemia): > 100 µM | TGI (SR leukemia): > 100 µM | TGI (SK-MEL-2 melanoma): 47.2 µM | TGI (HL-60(TB) leukemia): 61.2 µM | TGI (A549 NSCLC): > 100 µM | TGI (SK-MEL-5 melanoma): 61.9 µM | TGI (SK-OV-3 ovarian): 20.4 µM | TGI (MDA-MB-435): > 100 µM | TGI (ACHN renal): 37 µM | TGI (SF-295 CNS): > 100 µM | TGI (BT-549 breast): > 100 µM | TGI (HOP-92 NSCLC): 74.9 µM | TGI (RXF 393 renal): > 100 µM | TGI (U251 CNS): > 100 µM | TGI (UACC-62 melanoma): 27 µM | TGI (RPMI-8226 leukemia): > 100 µM | TGI (A498 renal): 27.9 µM | TGI (HCC-2998 colon): > 100 µM | TGI (KM12 colon): > 100 µM | TGI (UO-31 renal): > 100 µM | TGI (SN12C renal): > 100 µM | TGI (OVCAR-4 ovarian): 93.5 µM | TGI (NCI/ADR-RES ovarian): 14.2 µM | TGI (MDA-N): > 100 µM | TGI (PC-3 prostate): > 100 µM | TGI (M14 melanoma): 50 µM | TGI (IGROV1 ovarian): 37.1 µM | TGI (OVCAR-5 ovarian): > 100 µM | TGI (K-562 leukemia): > 100 µM | TGI (OVCAR-3 ovarian): > 100 µM | TGI (MCF7 breast): > 100 µM | TGI (HT29 colon): > 100 µM | TGI (CAKI-1 renal): 15 µM | TGI (HOP-62 NSCLC): > 100 µM | TGI (MDA-MB-231 breast): > 100 µM | TGI (TK-10 renal): > 100 µM | TGI (EKVX NSCLC): > 100 µM | TGI (SF-268 CNS): > 100 µM | TGI (COLO 205 colon): 88.7 µM | TGI (SK-MEL-28 melanoma): 57.3 µM | TGI (OVCAR-8 ovarian): 97.7 µM
